From patent publication US6309842A, “Use of modified tethers in screening compound libraries” (Glaxo Wellcome Inc., priority 1997, dated 2001)

What was measured:
[1] = target: RARa (Retinoic Acid Receptor alpha) (Homo sapiens, UniProt P10276); assay: Gal4 DNA binding domain/RARa fusion with 5x UAS-tk-SEAP reporter in CHOK1 cells
Procedure: The Gal4 DNA response element (5× UAS) was cloned upstream of the SEAP reporter gene, driven by the tk promoter, into the pGL3 vector (Promega). The pSG5 vector (Stratagene) was used to clone a Gal4 DNA Binding Domain/RARa (Retinoic Acid Receptor alpha)(carboxy end) fusion. These two plasmids were simultaneously transiently lipofected into CHOK1 cells using with Lipofectamine (Gibco BRL). The lipofected cells were seeded into individual wells on 2, 96-well culture plates (Falcon). The cells were grown for 16 hr in 100 μl/well Optimem Media (Gibco) with 10% dilapidated serum (Sigma) that was heat treated at 65° C. for 45 minutes before adding to the media. Serum was heated to inactivate endogenous phosphatases. After 16 hr growth at 37° C., there were 10^4 cells/well. Cells in one plate were stimulated with 1 μM retinoic acid; the cells in the other plate were not stimulated. Media was the same. The plates were incubated in the 37° C. cell culture incubator for another 24 hr. The supernatants were removed from the individual wells on the plates. All supernatants from stimulated cells were pooled; all supernatants from nonstimulated cells were pooled. Both were stored at 4° C. overnight. The cells were discarded.
The next day, 100 μl of each supernatant was tested for SEAP activity using the Tropix Chemiluminescent Assay Kit, as before.

[2] = target: T1, IL-1R (Homo sapiens, UniProt P14778); assay: IL-1R binding assay
T1 sequence (P14778 18-569): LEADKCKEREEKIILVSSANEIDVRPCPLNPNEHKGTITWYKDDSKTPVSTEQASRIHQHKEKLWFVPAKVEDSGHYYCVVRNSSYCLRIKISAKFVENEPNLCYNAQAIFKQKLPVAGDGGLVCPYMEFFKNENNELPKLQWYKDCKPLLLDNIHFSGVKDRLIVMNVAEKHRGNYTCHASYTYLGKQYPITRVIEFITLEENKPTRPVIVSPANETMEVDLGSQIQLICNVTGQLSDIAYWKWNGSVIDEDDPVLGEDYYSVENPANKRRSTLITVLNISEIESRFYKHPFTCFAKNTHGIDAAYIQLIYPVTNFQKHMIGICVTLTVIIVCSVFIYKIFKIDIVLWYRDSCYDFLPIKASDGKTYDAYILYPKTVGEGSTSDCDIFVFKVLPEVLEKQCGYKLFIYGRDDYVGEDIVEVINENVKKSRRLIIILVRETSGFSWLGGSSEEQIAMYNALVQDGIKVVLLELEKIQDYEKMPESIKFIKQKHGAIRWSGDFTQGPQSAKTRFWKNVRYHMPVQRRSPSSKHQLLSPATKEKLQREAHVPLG

[3] = test system: IL-1RFc; assay: Competition assay, IL-1RFc held on reservoir beads, released AP activity; type: binding; conditions: beads coated with streptavidin or biotin-MBP-AF12413
From the text: This example uses two classes of beads referred to as reservoir beads and library beads. The reservoir beads have receptor immobilized via a known ligand. The library beads have compounds to be screened, identifier tags and tethers as before. A compound released from a library bead competes a labelled receptor from a reservoir bead, and the labelled receptor, directly or indirectly, modifies a tether on proximate library beads. Both sets of beads can be added to nanowells for performing the assay.
500 μl beads (Polysciences, Inc., 2.5% Solids-latex, 2 μm) were washed twice with PBS, resuspended in 1 ml of PBS and split into 5 tubes (a, b, c, d, e). 300 μl 1 mg/ml coating protein was added per tube and incubated at 37° C. for 3 hr on shaker. The beads were washed with PBT. Coating proteins were added in the five tubes as follows: a. BSA-Biotin (Sigma), b. BSA (LC)-Biotin (Sigma), c. Hemocyanin-Biotin (Sigma), d. Streptavidin (Gibco BRL), e. Biotin-MBP-AF12413 [[…](biotin)[…] (SEQ ID NO:30)-maltose binding protein-[…] (SEQ ID NO:31)].
The beads were blocked with 1 ml PBT and incubated at room temperature overnight on shaker and washed with PBT. 300 μl of 1 mg/ml streptavidin and 1.2 ml PBT were added to a, b, c, tubes, which were incubated at; 37° C. for 1 hour on shaker. The tubes were washed twice in PBS. […]

Chain of RARa (Retinoic Acid Receptor alpha) (P10276 whole entry, the tested form may be a part): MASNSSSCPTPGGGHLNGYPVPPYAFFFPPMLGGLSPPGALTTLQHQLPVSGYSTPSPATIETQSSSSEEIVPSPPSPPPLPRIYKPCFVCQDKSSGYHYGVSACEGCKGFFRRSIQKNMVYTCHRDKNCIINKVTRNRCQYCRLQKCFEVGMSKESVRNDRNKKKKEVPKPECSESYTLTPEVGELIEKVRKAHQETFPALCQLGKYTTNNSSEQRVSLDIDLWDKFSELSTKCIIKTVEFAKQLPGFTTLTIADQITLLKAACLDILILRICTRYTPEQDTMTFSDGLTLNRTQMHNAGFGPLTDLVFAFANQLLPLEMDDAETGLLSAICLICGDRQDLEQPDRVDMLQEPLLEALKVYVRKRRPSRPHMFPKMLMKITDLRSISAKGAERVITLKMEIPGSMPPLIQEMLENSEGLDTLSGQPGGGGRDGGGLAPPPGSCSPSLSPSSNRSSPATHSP

For `CC1=C(/C=C/C(C)=C/C=C/C(C)=C/C(=O)O)C(C)(C)CCC1` [retinoic acid], the “SEAP produced in supernatant” value ([1]; 1 μM retinoic acid, 24 hr stimulation) was “about 0.52 units of SEAP/ml” and the fold induction at 1 µM ([1]; CHO-K1, 24 h, read-out: Increase in SEAP production upon stimulation) was 126.
In the case of NH2-YEWTPGYYQJY-NH2 [AF12304], the IC50 [2] is reported as ~2 nM and the “Signal of released AP activity” value [3] is reported as “only background signals”.
